Legend:
astrocyte A-172 cells = assay: 3NPA-induced model of Huntington's disease, astrocyte A-172 cells; type: cell-based, human; settings: for Astro-protective effect (% of control): difference to 10 mM 3NPA, 48 h
Description: (§1) Before application of toxin 3-nitropropionic acid (3NPA) for mimicking Huntington's disease, the 3NPA was dissolved in water and neutralized by sodium hydroxide. SH-SY5Y cells were seeded in the same density and differentiated by the procedure shown above. Astrocyte cells A-172 were also seeded as described in previous section. Both cell lines were co-treated by 3NPA (20 mM for SH-SY5Y cells, […]) and tested compounds at 0.1, 1 and 10 μM concentration for 48 h.

[1] = system: SH-SY5Y human neuroblastoma cell line; assay: Cytotoxicity, Calcein AM viability assay on neuron-like SH-SY5Y cells; type: cell-based; settings: 24 h
Description: The SH-SY5Y human neuroblastoma cell line obtained from ECACC (The European Collection of Authenticated Cell Cultures) was cultivated in Dulbecco's modified Eagle's Medium and Ham's F12 Nutrient Mixture (DMEM:F-12, 1:1), supplemented with 10% fetal bovine serum (FBS) and 1% penicillin and streptomycin at 37° C. in a humidified atmosphere 5% CO2, 95% humidity in passage limit up to ECACC+20. The assay was performed in 96-well microplate with 7000 SH-SY5Y cells per well. After 48 h, old DMEM/F12 media was removed by fresh media containing tested compounds at 0.1, 1 and 10 μM concentrations for 24 h. Glial cell line A-172 purchased from ATCC and grown in same conditions as SH-SY5Y cell line. A-172 cells were seeded in density 2000 cells per well and growing medium was replaced by treatment medium containing tested compounds in 0.1, 1 and 10 μM concentration; or in higher concentrations for R-LA or NAC positive controls for 48 hours. All tested compounds dissolved in DMSO were added into the medium. The maximum concentration of DMSO in media was kept below 0.1% (v/v). The cell viability was measured by Calcein AM (1 mg/ml ThermoFisher) viability assay. Solution of Calcein AM in PBS (0.75 μM) was pipetted to cells and incubated for 50 min. After that the fluorescence was measured at 488/517 nm (excitation/emission) using microplate reader Infinite M200 (TECAN). Calcein AM assay is based on the dye-intracellular-esterase cleavage of non-fluorescent dye (Calcein AM) by living cells to fluorescent dye (Calcein), while dying cells lose such ability. The values in Table 2 show the % of viability compared to control for all tested compounds. The results from DMSO control (medium with DMSO, <0.1% (v/v)) was postulated as 100% viability (see the first line of Table 2).

[2] = system: human neuroblastoma cell line SH-SY5Y; assay: Viability of differentiated SH-SY5Y in salsolinol-induced model of PD (Calcein AM); type: cell-based; settings: for Neuroprotective effect (% of control): difference between 800 μM SAL and co-treatment group means
Description: Similarly, as in previous “Safety test”, the SH-SY5Y cells were seeded at density 7000 cells/well. After 48 h differentiation, old 1% DMEM/F12 media was replaced by fresh media containing 800 μM salsolinol (SAL) and tested compounds in 0.1, 1 and 10 μM concentrations. N-acetylcystein were chosen as positive control. After 24 hours, the cell viability was measured by Calcein AM viability assay. The values in Table 2 show % of viability of all tested compounds relative to control. The control (medium with DMSO, <0.1% (v/v)) was postulated as 100% viability (see the first line of the table), while the SAL exposure lead to decrease of viability to 65.4±0.97%.

caspase-3,7 activity = assay: Caspase-3,7 activity in salsolinol-induced model of PD on SH-SY5Y (Ac-DEVD-AMC); type: cell-based, human; settings: for Caspase-3,7 activity (% of 800 μM SAL control): percentages of control (800 μM SAL = 100), 24 hour co-treatment; for reduction of caspase-3,7 activity, in words: 800 μM SAL, compounds 3 and 4 at 10 μM compared with NAC
Description: Similarly, as shown in previous assay, cells grew on 96 multiwell plates at density 20000 cells per well underwent differentiation and treatment procedure for salsolinol model. After 24 hour co-treatment with salsolinol, caspase-3,7 (casp-3,7) activity as marker of apoptosis was quantified by its substrate Ac-DEVD-AMC according to Carrasco et al. (2003, BioTechniques, 34, 1064-1067). In this model, overall casp-3,7 activity induced by 800 μM SAL was consider as 100% and thus the reduction in casp-3,7 was observed after treatment with the protective terpenoid derivatives. As shown in Table 4 and FIG. 2, 800 μM SAL induced 2.9-fold increase.

[3] = system: human neuron-like SH-SY5Y cells; assay: 3NPA-induced model of Huntington's disease, neuron-like SH-SY5Y cells; type: cell-based; settings: difference to 20 mM 3NPA, 48 h
Description: as §1

[4] = system: superoxide radical formation; assay: Oxidative stress (superoxide radical formation, DHE) in 3NPA-induced model on SH-SY5Y; type: cell-based, human; settings: for Superoxide radical formation (oxidative stress) %: 20 mM 3NPA = 100%, 24 hours
Description: Similarly, to previous assay, cells grown on 96-multiwell plates at density 20000 cells per well underwent differentiation and treatment procedure with 3-nitropropionic acid (3NPA) in this model. After 24 hours of co-treatment with 20 mM 3NPA, superoxide radical's formation as a marker of oxidative stress was quantified by dihydroethidium according to Kim et al. (2017, J. Med. Food, 20, 140-151). Briefly, neuron-like SH-SY5Y cells were centrifuged at 500 g for 5 min and 30 s, then media were replaced by 10 μM DHE PBS solution and kept at room temperature for 30 min. After that, DHE was read at 500 nm/580 nm (excitation/emission) by Infinite M200 Pro (Tecan) microplate reader. DHE is cell permeable dye which is selective for superoxide radical detection. Overall oxidative stress achieved by 20 mM 3NPA was consider as 100% and thus the reduction in superoxide radical's formation (OS reducing effect) was determined. As shown in Table 6 and FIG. 2, 20 mM 3NPA induced 2.7-fold increase in superoxide radical's formation.

glial A-172 cells = assay: Cytotoxicity, Calcein AM viability assay on glial A-172 cells; type: cell-based, human; settings: 48 hours

Row | SMILES | viability, percentage of DMSO control ([1]; 0.1 μM) [%] | viability, percentage of DMSO control ([1]; 1 μM) [%] | viability, percentage of DMSO control ([1]; 10 μM) [%] | Neuroprotective effect (% of control) ([2]; 0.1 μM, 24 hours) | Neuroprotective effect (% of control) ([2]; 1 μM, 24 hours) | Neuroprotective effect (% of control) ([2]; 10 μM, 24 hours) | Caspase-3,7 activity (% of 800 μM SAL control) (caspase-3,7 activity; 1 μM) [%] | Caspase-3,7 activity (% of 800 μM SAL control) (caspase-3,7 activity; 10 μM) [%] | reduction of caspase-3,7 activity, in words (caspase-3,7 activity) | Neuro-protective effect (% of control) ([3]; 0.1 μM) | Neuro-protective effect (% of control) ([3]; 1 μM) | Neuro-protective effect (% of control) ([3]; 10 μM) | Astro-protective effect (% of control) (astrocyte A-172 cells; A-172, 0.1 μM) | Astro-protective effect (% of control) (astrocyte A-172 cells; A-172, 1 μM) | Astro-protective effect (% of control) (astrocyte A-172 cells; A-172, 10 μM) | Superoxide radical formation (oxidative stress) % ([4]; 0.1 μM) [%] | Superoxide radical formation (oxidative stress) % ([4]; 1 μM) [%] | Superoxide radical formation (oxidative stress) % ([4]; 10 μM) [%] | viability, percentage of DMSO control (glial A-172 cells; 0.1 μM) [%] | viability, percentage of DMSO control (glial A-172 cells; 1 μM) [%] | also measured
1 | O=C(O)CCCC[C@@H]1CCSS1 [R-LA, R-lipoic acid, reference compound] |  |  |  |  |  |  |  |  |  |  |  |  |  |  |  |  |  |  |  |  | Astro-protective effect (% of control) (astrocyte A-172 cells; A-172, column head 0.5 μM (positive controls)): N/A (N/A = no protection); Astro-protective effect (% of control) (astrocyte A-172 cells; A-172, column head 5 μM (positive controls)): 13.27 % of control; Astro-protective effect (% of control) (astrocyte A-172 cells; A-172, column head 50 μM (positive controls)): 14.87 % of control
2 | C=C(C(=O)OCc1ccco1)C1CCC2(COC(C)=O)CCC3(C)C(CCC4C5(C)CCC(OC(C)=O)C(C)(C)C5CCC43C)C12 (stereo not drawn) [Compound 5, Furan-2-yl-methyl 3β,28-diacetyloxylup-20(29)-en-30-oate] | 91.9 | 106.4 | 129.5 | N/A (N/A = no protection) | N/A (N/A = no protection) | 18.96 % of control | 86.8 | 76.5 | positive effect on casp-3,7 activity | N/A (N/A = no protection) | N/A (N/A = no protection) | 20.63 % of control | N/A (N/A = no protection) | 12.87 % of control | 14.05 % of control | 94.1 | 87.3 | 87.1 | 96.6 | 100.0 | effect on SH-SY5Y viability in salsolinol model, in words ([2]; 800 μM salsolinol, comparison with NAC): better effect than 1000 μM NAC; efficacy relative to positive controls (by used concentration) (caspase-3,7 activity; caspase-3,7 activity, salsolinol model): 10 fold; protective effect on astrocytes in 3NPA model, in words (astrocyte A-172 cells; A-172 cells, comparison with R-LA): positive effect comparable to R-LA control; viability, percentage of DMSO control (glial A-172 cells; 10 μM): 90.8%
3 | C[C@@H]1NCCc2cc(O)c(O)cc21 [SAL, salsolinol, reference compound] |  |  |  |  |  |  |  |  |  |  |  |  |  |  |  |  |  |  |  |  | viability relative to DMSO control after SAL exposure ([2]; 800 μM salsolinol alone, 24 hours): 65.4±0.97%; increase of caspase-3,7 activity (caspase-3,7 activity; 800 μM SAL versus DMSO control): 2.9 fold
4 | C=C(C(=O)OCc1cccs1)C1CCC2(COC(C)=O)CCC3(C)C(CCC4C5(C)CCC(OC(C)=O)C(C)(C)C5CCC43C)C12 (stereo not drawn) [Compound 6, Thiophen-2-ylmethyl 3β,28-diacetyloxy-lup-20(29)-en-30-oate] | 92.1 | 96.2 | 113.5 | N/A (N/A = no protection) | N/A (N/A = no protection) | 7.38 % of control | 93.2 | 88.3 | positive effect on casp-3,7 activity | N/A (N/A = no protection) | N/A (N/A = no protection) | 20.53 % of control | 4.27 % of control | 4.57 % of control | 7.45 % of control | 92.2 | 89.9 | 88.0 | 99.9 | 98.4 | viability, percentage of DMSO control (glial A-172 cells; 10 μM): 96.2%
5 | O=C(O)CC[N+](=O)[O-] [Compound 3NPA, 3-nitropropionic acid, reference compound] |  |  |  |  |  |  |  |  |  |  |  |  |  |  |  |  |  |  |  |  | increase in superoxide radical's formation ([4]; 20 mM 3NPA versus DMSO control): 2.7 fold

— patent publication US12636299B2, “Terpenoid derivatives, pharmaceutical preparations containing these derivatives and their use in neuroprotection” (UNIVERZITA PALACKEHO V OLOMOUCI, priority 2020, dated 2026)
